These results are taken from patent US6103766A, “Phenylsulfonamide-phenylethylamines useful as dopamine receptors” (Pharmacia & Upjohn Company, priority 1999, dated 2000).

Where “and” joins values, the source holds several entries; their conditions need not be identical. Identical values can stand only once. Like-named read-outs stand apart in the source and are kept apart here.

In test [1] the target is T1, dopamine D2 receptor (Rattus norvegicus, UniProt P61169).
T1 construct: expressed in transfected cells; host or cells: CHO-K1
Put plainly: Competition binding at cloned rat dopamine D2 receptor (D2-DOP-CLONE) with [3H]-86170. The note with it: cloned rat receptor in CHO-K1 cells, [3H]-86170 (62 Ci/mmol, 2 nM), eleven dilutions, read-out: Ki (Receptor binding, IC50 values). The procedure:
(§1) Competition binding experiments employed eleven dilutions of test compounds of Formula I competing with [^3 H]-5-(dipropylamino)-5,6-dihydro-4H-imidazo(4,5,1-ij)quinolin-2(1H)-one (R-enantiomer) ("86170") (62 Ci/mmol, 2nM) and [^3 H]-spiperone ("SPI") (107 Ci/mmol, 0.5 nM) for D2 and D3 binding sites, respectively. (Lahti, R. A., Eur. J. Pharmacol., 202, 289 (1991)) In each experiment, cloned rat receptors expressed in CHO-K1 cells were used. (Chio, C. L., Nature, 343, 266 (1990); and Huff, R. M., Mol. Pharmacol. 45, 51-60 (1993)).

Test [2] concerns the target T2, dopamine D3 receptor (Rattus norvegicus, UniProt P19020).
T2 construct: expressed in transfected cells; host or cells: CHO-K1
Put plainly: Competition binding at cloned rat dopamine D3 receptor (D3-DOP-CLONE) with [3H]-spiperone. The note with it: cloned rat receptor in CHO-K1 cells, [3H]-spiperone (107 Ci/mmol, 0.5 nM), eleven dilutions. The procedure: as §1

[3] abbreviates: Ki (Receptor binding, IC50 values).
The mark [4] stands for this setting: read-out: Ki (Receptor binding, IC50 values).

T2 sequence (P19020 whole entry): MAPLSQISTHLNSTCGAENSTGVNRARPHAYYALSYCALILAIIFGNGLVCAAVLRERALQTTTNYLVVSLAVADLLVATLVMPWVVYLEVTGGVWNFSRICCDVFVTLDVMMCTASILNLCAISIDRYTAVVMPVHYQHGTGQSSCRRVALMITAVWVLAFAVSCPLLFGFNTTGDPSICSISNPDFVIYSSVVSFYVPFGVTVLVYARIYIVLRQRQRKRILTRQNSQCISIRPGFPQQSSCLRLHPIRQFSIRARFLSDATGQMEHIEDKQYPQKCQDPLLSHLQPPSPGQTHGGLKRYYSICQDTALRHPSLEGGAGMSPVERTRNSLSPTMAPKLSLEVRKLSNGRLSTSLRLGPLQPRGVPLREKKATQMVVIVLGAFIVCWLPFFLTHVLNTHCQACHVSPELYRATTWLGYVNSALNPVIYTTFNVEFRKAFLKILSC
T1 sequence (P61169 whole entry): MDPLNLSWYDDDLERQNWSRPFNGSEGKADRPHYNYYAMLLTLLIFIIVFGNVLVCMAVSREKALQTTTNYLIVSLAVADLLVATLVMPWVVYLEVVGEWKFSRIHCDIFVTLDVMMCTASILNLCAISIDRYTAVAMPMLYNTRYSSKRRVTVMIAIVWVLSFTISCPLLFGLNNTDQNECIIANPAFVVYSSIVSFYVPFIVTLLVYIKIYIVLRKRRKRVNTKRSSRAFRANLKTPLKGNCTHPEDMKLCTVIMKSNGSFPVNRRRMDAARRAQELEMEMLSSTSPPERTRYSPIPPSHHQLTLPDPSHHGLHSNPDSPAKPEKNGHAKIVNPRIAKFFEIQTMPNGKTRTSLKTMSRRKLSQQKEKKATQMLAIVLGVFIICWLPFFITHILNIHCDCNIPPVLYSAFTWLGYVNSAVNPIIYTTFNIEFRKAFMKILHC

As to `CCCN(CCC)CCc1ccc(NS(=O)(=O)c2ccc(Cl)cc2)cc1` [Example 1, 2-[4-(4-chlorobenzenesulfonamido)phenyl]ethyl-1-dipropylamine], the results for the Ki in test [1] and in test [2] (setting [3]) were 629 nM and 3.7 nM, respectively.
For `CCCN(CCC)CCc1ccc(NS(=O)(=O)c2ccc(NC(C)=O)cc2)cc1` [Example 2, 2-[4-(4-acetamidobenzenesulfonamido)phenyl]ethyl-1-dipropylamine], the Ki – broadly, a measure of affinity in units of concentration, obtained from inhibition or displacement – in test [1] amounted to 1070 nM; in test [2] (setting [4]), 34 nM.
`CCCNCCc1ccc(NS(=O)(=O)c2ccc(Cl)cc2Cl)cc1` [Example 3, 2-[4-(2,4-dichlorobenzenesulfonamido)phenyl]ethyl-1-propylamine]: the Ki in test [1] was 760 nM; in test [2] (setting [4]), 14 nM and 26 nM.
In the case of `CCCNCCc1ccc(NS(=O)(=O)c2ccc(Cl)cc2)cc1` [Example 4, 2-[4-(4-chlorobenzenesulfonamido)phenyl]ethyl-1-propylamine], the Ki in test [1] was determined as 677 nM; in test [2] (setting [3]) it was 18 nM.
As to `CCCNCCc1ccc(NS(=O)(=O)c2ccc(OC(F)(F)F)cc2)cc1` [Example 5, 2-[4-(4-trifluoromethoxybenzenesulfonamido)phenyl]ethyl-1-propylamine], the Ki came out at 2390 nM in test [1] and 28 nM in test [2] (setting [4]).
For the compound `CCCNCCc1ccc(NS(=O)(=O)c2ccc(F)cc2Cl)cc1` [Example 6, 2-[4-(2-chloro-4-fluorobenzenesulfonamido)phenyl]ethyl-1-propylamine], the Ki in test [1] amounted to 2180 nM; in test [2] (setting [4]), 165 nM.
Turning to `CCCNCCc1ccc(NS(=O)(=O)c2ccc(Br)cc2)cc1` [Example 7, 2-[4-(4-bromobenzenesulfonamido)phenyl]ethyl-propylamine], the Ki in test [1] amounted to 623 nM; in test [2] (setting [3]), 14 nM.
As for `CCCNCCc1ccc(NS(=O)(=O)c2ccc(C(F)(F)F)cc2)cc1` [Example 8, 2-[4-[(4-trifluoromethyl)benzenesulfonamido]phenyl]ethyl-1-propylamine], the Ki stood at 1530 nM in test [1] and 33 nM in test [2] (setting [4]).
As for `CCCNCCc1cccc(NS(=O)(=O)c2ccccc2F)c1` [Example 9, 2-[3-(2-fluorobenzenesulfonamido)phenyl]ethyl-1-propylamine], the Ki in test [1] amounted to 645 nM; in test [2] (setting [3]), 54 nM.
For `CCCNCCc1cccc(NS(=O)(=O)c2cccc(Cl)c2)c1` [Example 10, 2-[3-(3-chlorobenzenesulfonamido)phenyl]ethyl-1-propylamine], the Ki was determined as 1080 nM in test [1] and 111 nM in test [2] (setting [4]).
